Assay results reported in patent publication US20070010671A1, “Novel quinazoline derivatives and methods of treatment related to the use thereof” (priority 2003, published 2007).

target: MCH receptor (Homo sapiens, UniProt Q99705); assay: High throughput functional screening FLIPR/FDSS6000: inhibition of MCH-evoked intracellular Ca2+ changes; assay type: cell-based; conditions: class by percent of control at 10^-7 M or IC50
Method in brief: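 Cells expressing a non-endogenous, constitutively active MCH receptor were loaded with 4 μM Fluo4-AM (with probenecid) for 1 hr at 37° C. Test compound was preincubated 3 min at 37° C before 50 nM MCH was added. The [Ca2+]i transient was read at Ex 488/Em 530 nm for 290 s.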

Row | Compound | class
1 | CN(C)c1nc(N[C@H]2CC[C@@H](CNC(=S)Nc3c(Cl)cccc3Cl)CC2)nc2ccccc12 [compound 595] | 2 (Class 2: The value of percent of control at 10^−7 M was from 40% to 60% or the value of IC50 was from 50 nM to 200 nM.)
2 | CN(C)c1nc(N[C@H]2CC[C@@H](NC(=S)Nc3ccc4c(c3)CCC4)CC2)nc2ccccc12 [compound 325, N-(2,3-dihydro-1H-inden-5-yl)-N′-(cis-4-{[4-(dimethylamino)quinazolin-2-yl]amino}cyclohexyl)thiourea] | 2 (Class 2: The value of percent of control at 10^−7 M was from 40% to 60% or the value of IC50 was from 50 nM to 200 nM.)
3 | CN(C)c1nc(N[C@H]2CC[C@@H](CNC(=O)Nc3ccc4c(c3)OCCCO4)CC2)nc2ccccc12 [compound 763] | 3 (Class 3: The value of percent of control at 10^−7 M was more than 60% or the value of IC50 was more than 200 nM.)
4 | CN(C)c1nc(N[C@H]2CC[C@@H](NC(=S)Nc3ccc(C(C)(C)C)cc3)CC2)nc2ccccc12 [compound 375] | 3 (Class 3: The value of percent of control at 10^−7 M was more than 60% or the value of IC50 was more than 200 nM.)
5 | CN(C)c1nc(N[C@H]2CC[C@@H](NC(=S)Nc3ccc4nsnc4c3)CC2)nc2ccccc12 [compound 399] | 3 (Class 3: The value of percent of control at 10^−7 M was more than 60% or the value of IC50 was more than 200 nM.)
6 | CN(C)c1nc(N[C@H]2CC[C@@H](NC(=S)Nc3ccc(Br)c(Cl)c3)CC2)nc2ccccc12 [compound 311] | 3 (Class 3: The value of percent of control at 10^−7 M was more than 60% or the value of IC50 was more than 200 nM.)
7 | CN(C)c1nc(N[C@H]2CC[C@@H](CNC(=O)Nc3ccc(F)c(Cl)c3)CC2)nc2ccccc12 [compound 529] | 1 (Class 1: The value of percent of control at 10^−7 M was less than 40% or the value of IC50 was less than 50 nM.)
8 | CN(C)c1nc(N[C@H]2CC[C@@H](NC(=S)Nc3cccc(OCc4ccccc4)c3)CC2)nc2ccccc12 [compound 261] | 3 (Class 3: The value of percent of control at 10^−7 M was more than 60% or the value of IC50 was more than 200 nM.)
9 | Cc1cccc(NC(=S)NC[C@H]2CC[C@@H](Nc3nc(N(C)C)c4ccccc4n3)CC2)c1 [compound 605] | 3 (Class 3: The value of percent of control at 10^−7 M was more than 60% or the value of IC50 was more than 200 nM.)
10 | Cc1onc(-c2ccccc2)c1NC(=S)N[C@H]1CC[C@@H](Nc2nc(N(C)C)c3ccccc3n2)CC1 [compound 402, N-(cis-4-{[4-(dimethylamino)quinazolin-2-yl]amino}cyclohexyl)-N′-(5-methyl-3-phenylisoxazol-4-yl)thiourea] | 1 (Class 1: The value of percent of control at 10^−7 M was less than 40% or the value of IC50 was less than 50 nM.)
11 | Cc1ccc(NC(=S)NC[C@H]2CC[C@@H](Nc3nc(N(C)C)c4ccccc4n3)CC2)cc1Cl [compound 687] | 3 (Class 3: The value of percent of control at 10^−7 M was more than 60% or the value of IC50 was more than 200 nM.)
12 | CN(C)c1nc(N[C@H]2CC[C@@H](CNC(=S)Nc3cccc([N+](=O)[O-])c3)CC2)nc2ccccc12 [compound 612] | 3 (Class 3: The value of percent of control at 10^−7 M was more than 60% or the value of IC50 was more than 200 nM.)
13 | CN(C)c1nc(N[C@H]2CC[C@@H](CNC(=O)NCc3ccccc3)CC2)nc2ccccc12 [compound 410] | 3 (Class 3: The value of percent of control at 10^−7 M was more than 60% or the value of IC50 was more than 200 nM.)
14 | CN(C)c1nc(N[C@H]2CC[C@@H](NC(=S)Nc3ccc(Cl)c(C(F)(F)F)c3)CC2)nc2ccccc12 [compound 235] | 3 (Class 3: The value of percent of control at 10^−7 M was more than 60% or the value of IC50 was more than 200 nM.)
15 | COC(=O)c1cccc(NC(=O)NC[C@H]2CC[C@@H](Nc3nc(N(C)C)c4ccccc4n3)CC2)c1 [compound 527] | 3 (Class 3: The value of percent of control at 10^−7 M was more than 60% or the value of IC50 was more than 200 nM.)
16 | CN(C)c1nc(N[C@H]2CC[C@@H](CNC(=S)Nc3ccccc3I)CC2)nc2ccccc12 [compound 643] | 3 (Class 3: The value of percent of control at 10^−7 M was more than 60% or the value of IC50 was more than 200 nM.)
17 | CN(C)c1nc(N[C@H]2CC[C@@H](CNC(=O)Nc3ccccc3F)CC2)nc2ccccc12 [compound 439, N-[(cis-4-{[4-(dimethylamino)quinazolin-2-yl]amino}cyclohexyl)methyl]-N′-(2-fluorophenyl)urea] | 2 (Class 2: The value of percent of control at 10^−7 M was from 40% to 60% or the value of IC50 was from 50 nM to 200 nM.)
18 | CN(C)c1nc(N[C@H]2CC[C@@H](CNC(=O)Nc3ccccc3OC(F)(F)F)CC2)nc2ccccc12 [compound 576] | 3 (Class 3: The value of percent of control at 10^−7 M was more than 60% or the value of IC50 was more than 200 nM.)
19 | CN(C)c1nc(N[C@H]2CC[C@@H](CNC(=O)Nc3cc(F)cc(C(F)(F)F)c3)CC2)nc2ccccc12 [compound 532] | 2 (Class 2: The value of percent of control at 10^−7 M was from 40% to 60% or the value of IC50 was from 50 nM to 200 nM.)

same assay, conditions: class by percent of control at 10^-7 M or by IC50; read-out: class

Row | IC50 [nM] | Compound
20 | > 200 | CCOC(=O)CNC(=O)N[C@H]1CC[C@@H](Nc2nc(N(C)C)c3ccccc3n2)CC1 [compound 28]
21 | > 200 | CN(C)c1nc(N[C@H]2CC[C@@H](NC(=O)Nc3cccc(C(F)(F)F)c3F)CC2)nc2ccccc12 [compound 96]
22 | > 200 | CC(=O)c1cccc(NC(=O)N[C@H]2CC[C@@H](Nc3nc(N(C)C)c4ccccc4n3)CC2)c1 [compound 4]
23 | 50 to 200 | COc1ccc(NC(=S)N[C@H]2CC[C@@H](Nc3nc(N(C)C)c4ccccc4n3)CC2)cc1 [compound 183, N-(cis-4-{[4-(dimethylamino)quinazolin-2-yl]amino}cyclohexyl)-N′-(4-methoxyphenyl)thiourea]
24 | > 200 | CN(C)c1nc(N[C@H]2CC[C@@H](NC(=S)Nc3ccccc3Br)CC2)nc2ccccc12 [compound 201]
25 | > 200 | CN(C)c1nc(N[C@H]2CC[C@@H](CNC(=O)OCC3c4ccccc4-c4ccccc43)CC2)nc2ccccc12 [compound 884]
26 | < 50 | CCCCCNC(=O)N[C@H]1CC[C@@H](Nc2nc(N(C)C)c3ccccc3n2)CC1 [compound 54, N-(cis-4-{[4-(dimethylamino)quinazolin-2-yl]amino}cyclohexyl)-N′-pentylurea]
27 | > 200 | CN(C)c1nc(N[C@H]2CC[C@@H](NC(=O)OCC(C)(C)C)CC2)nc2ccccc12 [compound 847]
28 | > 200 | CN(C)c1nc(N[C@H]2CC[C@@H](CNC(=S)Nc3ccc(N4CCOCC4)nc3)CC2)nc2ccccc12 [compound 820]
29 | < 50 | Cc1cc(C)c(NC(=O)N[C@H]2CC[C@@H](Nc3nc(N(C)C)c4ccccc4n3)CC2)c(C)c1 [compound 58, N-(cis-4-{[4-(dimethylamino)quinazolin-2-yl]amino}cyclohexyl)-N′-mesitylurea]
30 | > 200 | CN(C)c1nc(N[C@H]2CC[C@@H](NC(=O)NC3c4ccccc4-c4ccccc43)CC2)nc2ccccc12 [compound 840, N-(cis-4-{[4-(dimethylamino)quinazolin-2-yl]amino}cyclohexyl)-N′-9H-fluoren-9-ylurea]
31 | > 200 | Cc1ccc(NC(=O)N[C@H]2CC[C@@H](Nc3nc(N(C)C)c4ccccc4n3)CC2)c([N+](=O)[O-])c1 [compound 44]
32 | > 200 | CC(C)NC(=O)N[C@H]1CC[C@@H](Nc2nc(N(C)C)c3ccccc3n2)CC1 [compound 42]
33 | < 50 | CN(C)c1nc(N[C@H]2CC[C@@H](NC(=S)Nc3ccc(Br)cc3)CC2)nc2ccccc12 [compound 158, N-(4-bromophenyl)-N′-(cis-4-{[4-(dimethylamino)quinazolin-2-yl]amino}cyclohexyl)thiourea]

Row | Compound | IC50 [nM]
34 | CN(C)c1nc(N[C@H]2CC[C@@H](NC(=O)Oc3ccc(Br)cc3)CC2)nc2ccccc12 [compound 850] | > 200

same assay, conditions: class by percent of control at 10^−7 M or by IC50; read-out: class

Row | IC50 [nM] | Compound
35 | < 50 | Cc1cc(C)cc(CNC(=O)[C@H]2CC[C@@H](Nc3nc(N(C)C)c4ccccc4n3)CC2)c1 [Example 1142, cis-4-{[4-(dimethylamino)quinazolin-2-yl]amino}-N-(3,5-dimethylbenzyl)cyclohexanecarboxamide]
36 | 50 to 200 | CC(NC(=O)[C@H]1CC[C@@H](Nc2nc(N(C)C)c3cc(F)c(F)cc3n2)CC1)c1ccc(Br)cc1 (relative stereo) [Example 1008, cis-N-[1-(4-bromophenyl)ethyl]-4-{[4-(dimethylamino)-6,7-difluoroquinazolin-2-yl]amino}cyclohexanecarboxamide]
37 | < 50 | CN(C)c1nc(N[C@H]2CC[C@@H](C(=O)NCc3ccc(Cl)nc3)CC2)nc2ccccc12 [Example 1136, cis-N-[(6-chloropyridin-3-yl)methyl]-4-{[4-(dimethylamino)quinazolin-2-yl]amino}cyclohexanecarboxamide]
38 | < 50 | COc1cccc(NCC(=O)N[C@H]2CC[C@@H](Nc3nc(N(C)C)c4ccccc4n3)CC2)c1 [Example 1090, N-(cis-4-{[4-(dimethylamino)quinazolin-2-yl]amino}cyclohexyl)-N2-(3-methoxyphenyl)glycinamide]
39 | < 50 | CN(C)c1nc(N[C@H]2CC[C@@H](C(=O)NCc3ccc(Cl)cc3)CC2)nc2ccccc12 [Example 1155, cis-N-(4-chlorobenzyl)-4-{[4-(dimethylamino)quinazolin-2-yl]amino}cyclohexanecarboxamide]
40 | < 50 | CN(C)c1nc(N[C@H]2CC[C@@H](NC(=O)c3cccnc3Oc3ccc(F)c(Cl)c3)CC2)nc2ccccc12 [Example 1043, 2-(3-chloro-4-fluorophenoxy)-N-(cis-4-{[4-(dimethylamino)quinazolin-2-yl]amino}cyclohexyl)nicotinamide]

Row | Compound | IC50 [nM]
41 | COc1ccc(NC(=O)N[C@H]2CC[C@@H](Nc3nc(N(C)C)c4ccccc4n3)CC2)cc1OC [Example 1010, N-(3,4-dimethoxyphenyl)-N′-(cis-4-{[4-(dimethylamino)quinazolin-2-yl]amino}cyclohexyl)urea] | < 50
